Active and inactive are the calls of the source.
Experiments:
[1] = NIH-3T3 fibroblast cytotoxicity, dose response, cytotoxicity control, cell-based, fluorescence, Alamar Blue, secondary assay (AID 2327); type: functional;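 note: NIH-3T3 mouse fibroblasts cultured with fluconazole at 8 µg/mL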
[2] = fluconazole-exposed Candida albicans growth modulators – fluorescence, retest, confirmation (AID 2467); type: functional, cell-based
[3] = biological target: T1, Serine/threonine-protein phosphatase (Candida dubliniensis (strain CD36 / CBS 7987 / NCPF 3949 / NRRLY-17841) (Yeast), UniProt B9W6M3); assay: blockers of CaCl2-induced CDRE-lacZ signaling – S. cerevisiae, luminescence, secondary, dose response (AID 2388); type: functional, cell-based;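 note: yeast reporter cells carrying a calcineurin-responsive lacZ construct stimulated with calcium chloride; luminescent beta-galactosidase reporter signal in whole cells rather than isolated phosphatase activity; potency for inhibition where a drop in reporter signal means calcineurin blockade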
T1 sequence (B9W6M3 whole entry): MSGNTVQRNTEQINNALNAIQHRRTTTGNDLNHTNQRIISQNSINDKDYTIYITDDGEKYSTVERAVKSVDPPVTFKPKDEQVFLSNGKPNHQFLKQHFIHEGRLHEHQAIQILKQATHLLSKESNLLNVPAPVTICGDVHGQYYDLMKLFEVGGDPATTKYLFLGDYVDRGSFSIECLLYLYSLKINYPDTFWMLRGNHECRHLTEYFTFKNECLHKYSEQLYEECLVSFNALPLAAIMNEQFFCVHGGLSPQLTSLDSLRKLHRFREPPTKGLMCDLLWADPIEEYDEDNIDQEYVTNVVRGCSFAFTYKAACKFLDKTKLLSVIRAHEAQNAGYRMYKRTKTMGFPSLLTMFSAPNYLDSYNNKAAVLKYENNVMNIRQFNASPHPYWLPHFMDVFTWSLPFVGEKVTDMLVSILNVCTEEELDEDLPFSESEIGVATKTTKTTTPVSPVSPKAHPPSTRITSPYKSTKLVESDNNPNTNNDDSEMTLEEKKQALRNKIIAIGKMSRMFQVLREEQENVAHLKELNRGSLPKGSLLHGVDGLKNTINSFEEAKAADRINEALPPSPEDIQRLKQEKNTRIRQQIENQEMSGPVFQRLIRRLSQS

[4] = Luminescence Cell-Based Dose Retest to Confirm Inhibitors of Cancer Stem Cells. [Related pubchem assays (depositor defined):AID2717, AID2721]; type: functional; details: Homo sapiens
[5] = biological target: ATP-dependent molecular chaperone HSP82 (Candida albicans (strain WO-1) (Yeast), UniProt C4YTQ8); assay: steroid-induced GRE reporter decrease in yeast – S. cerevisiae, luminescence, Hsp90 inhibitor project, dose response (AID 2400); type: functional, cell-based;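 note: beta-galactosidase luminescence from glucocorticoid response element reporter as proxy for Hsp90 function; inhibitor potency where signal loss means Hsp90 inhibition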
[6] = HPDE-C7 pancreatic duct cell viability loss – fluorescence, HTS (AID 430); type: functional, cell-based; details: Homo sapiens
[7] = Trypanosoma cruzi growth suppression in host cells – NIH3T3 host cells, beta-gal luminescence, confirmation (AID 2044); type: functional, cell-based;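 note: intracellular parasites grown in NIH/3T3 mouse fibroblasts as host cells; luminescent beta-galactosidase reporter signal from transgenic T. cruzi replicating inside host cells; inhibitors lower the luminescence signal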
[8] = viability loss of HPDE-C7K cells – cell-based, fluorescence, HTS, primary screen (AID 431); type: functional; details: Homo sapiens
[9] = viability of PTEN-deleted HCT116 cells – cell-based, HCT116 PTEN knockout, dose response (AID 1047); type: functional;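 note: HCT116 colon tumor cells with PTEN knocked out; cells exposed to compound for 60 hours before readout; potency for loss of cell viability measured by luminescence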
[10] = NIH3T3 cell viability loss – ATP luminescence, mouse fibroblasts, counter-screen, dose response (AID 2010); type: functional, cell-based;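 note: cells exposed to compound for about 90 hours before reading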
[11] = viability of HCT116 lacking mutant beta-catenin – cell-based, human colon tumor, dose response (AID 1045); type: functional;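 note: HCT116 colon tumor cells with beta catenin knocked out; cells exposed to compound for 60 hours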
Vero = assay: viability of Vero cells under compound – cytotoxicity control for flavivirus capping enzyme inhibitors (AID 588742); type: functional; details: Chlorocebus sabaeus
Mu-type opioid receptor = Mu-type opioid receptor (Homo sapiens, UniProt P35372); type: functional, cell-based;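 note: U2OS cells with beta-arrestin recruitment to OPRM1 by beta-gal complementation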
[12] = biological target: 5-hydroxytryptamine receptor 2A (Mus musculus, UniProt P35363); type: functional, cell-based;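 note: CHO-K1 cells with tagged receptor and beta-arrestin; agonist potency measured as compound-induced activation of the receptor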
[13] = biological target: T2, Rac GTPase-activating protein 1 (Homo sapiens, UniProt Q9H0H5); assay: blockers of MgcRacGAP-driven Rac1 GTP hydrolysis – biochemical, ADP Hunter fluorescence, primary and confirmatory, confirmation (AID 624330); type: functional
T2 sequence (Q9H0H5 whole entry): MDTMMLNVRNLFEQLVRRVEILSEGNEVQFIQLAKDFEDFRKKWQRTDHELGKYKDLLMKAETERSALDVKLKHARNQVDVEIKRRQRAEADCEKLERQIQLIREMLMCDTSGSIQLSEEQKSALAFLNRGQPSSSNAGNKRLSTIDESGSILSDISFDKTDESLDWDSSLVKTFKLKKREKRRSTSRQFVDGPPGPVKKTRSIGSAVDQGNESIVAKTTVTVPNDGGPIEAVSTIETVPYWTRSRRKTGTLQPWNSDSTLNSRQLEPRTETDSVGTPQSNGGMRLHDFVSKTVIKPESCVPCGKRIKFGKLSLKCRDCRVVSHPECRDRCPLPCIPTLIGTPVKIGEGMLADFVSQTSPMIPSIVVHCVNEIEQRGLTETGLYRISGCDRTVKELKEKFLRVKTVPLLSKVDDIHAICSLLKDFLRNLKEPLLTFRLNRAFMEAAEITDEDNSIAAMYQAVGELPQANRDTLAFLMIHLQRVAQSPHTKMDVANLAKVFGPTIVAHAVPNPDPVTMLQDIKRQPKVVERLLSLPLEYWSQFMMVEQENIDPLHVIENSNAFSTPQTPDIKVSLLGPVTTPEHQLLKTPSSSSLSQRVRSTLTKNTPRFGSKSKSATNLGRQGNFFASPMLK

[14] = biological target: T3, Histone-lysine N-methyltransferase NSD2 (Homo sapiens, UniProt O96028); type: biochemical
T3 sequence (O96028 whole entry): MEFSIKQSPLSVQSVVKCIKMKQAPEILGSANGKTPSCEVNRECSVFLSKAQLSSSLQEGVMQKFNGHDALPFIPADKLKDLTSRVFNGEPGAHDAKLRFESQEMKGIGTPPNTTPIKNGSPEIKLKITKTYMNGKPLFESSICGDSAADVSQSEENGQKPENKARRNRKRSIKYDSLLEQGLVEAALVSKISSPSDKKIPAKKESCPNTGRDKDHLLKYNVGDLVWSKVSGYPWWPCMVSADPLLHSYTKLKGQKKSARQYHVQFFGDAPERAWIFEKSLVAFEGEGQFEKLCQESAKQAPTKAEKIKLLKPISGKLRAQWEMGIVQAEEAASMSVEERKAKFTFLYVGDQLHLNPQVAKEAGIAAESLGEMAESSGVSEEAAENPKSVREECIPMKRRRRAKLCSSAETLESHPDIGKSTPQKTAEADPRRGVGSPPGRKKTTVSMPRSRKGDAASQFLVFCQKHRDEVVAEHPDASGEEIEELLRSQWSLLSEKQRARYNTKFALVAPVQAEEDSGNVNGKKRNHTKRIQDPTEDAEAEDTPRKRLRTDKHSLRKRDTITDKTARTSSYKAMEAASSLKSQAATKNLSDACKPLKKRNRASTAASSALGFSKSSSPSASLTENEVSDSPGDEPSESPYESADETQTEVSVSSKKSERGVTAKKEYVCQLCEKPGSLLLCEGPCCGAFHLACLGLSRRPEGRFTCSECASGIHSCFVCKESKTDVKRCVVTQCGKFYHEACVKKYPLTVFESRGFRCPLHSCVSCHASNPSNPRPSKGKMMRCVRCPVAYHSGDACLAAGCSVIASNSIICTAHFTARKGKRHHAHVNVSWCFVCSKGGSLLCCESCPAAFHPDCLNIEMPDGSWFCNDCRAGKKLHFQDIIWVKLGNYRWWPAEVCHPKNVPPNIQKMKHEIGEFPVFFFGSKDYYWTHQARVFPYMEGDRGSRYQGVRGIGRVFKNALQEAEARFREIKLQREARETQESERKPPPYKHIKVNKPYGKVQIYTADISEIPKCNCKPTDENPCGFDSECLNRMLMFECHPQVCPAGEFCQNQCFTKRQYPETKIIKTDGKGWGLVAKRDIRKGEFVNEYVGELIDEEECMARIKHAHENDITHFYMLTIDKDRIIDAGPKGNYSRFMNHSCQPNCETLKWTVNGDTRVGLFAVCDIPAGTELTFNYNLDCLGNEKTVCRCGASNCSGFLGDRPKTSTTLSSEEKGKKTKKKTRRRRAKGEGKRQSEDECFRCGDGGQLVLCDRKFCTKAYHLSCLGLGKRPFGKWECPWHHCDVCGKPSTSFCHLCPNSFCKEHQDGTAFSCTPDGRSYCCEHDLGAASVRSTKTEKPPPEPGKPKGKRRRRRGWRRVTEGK

[15] = HGIII-sPLA2 enzyme inhibition potency – biochemical, QFRET, IC50, dose response (AID 743457);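 note: green fluorescence rise as the enzyme cleaves BODIPY PC-A2 in liposomes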
Paired box protein Pax-8 = Paired box protein Pax-8 (Homo sapiens, UniProt Q06710); assay: PAX8 transcriptional activity inhibition in RMG-I – RMG-I cells, luciferase, cherry-pick, dose response (AID 687027); type: functional, cell-based;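 note: luciferase reporter driven by Pax8 target thyroperoxidase promoter measured by SteadyGlo luminescence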
[16] = OVCAR8 cell viability loss – plate reader, dry powder samples, PAX8 project, dose response (AID 743197); type: functional, cell-based; details: OVCAR-8
[17] = A549 cell cytotoxicity, dose response, cytotoxicity control, plate reader, cherry-pick, antagonist series (AID 743412); type: functional, cell-based
[18] = toxicity toward HepG2 liver cells – cell-based, plate reader, cherry-pick, antagonist series, cytotoxicity control, dose response (AID 743416); type: functional
[19] = blockers of bursicon-stimulated LGR2 cAMP reporter – cell-based, HEK293, CRE-luciferase reporter, cherry pick, set 2, dose response (AID 743343); type: functional;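 note: transfected cells were stimulated with diluted bursicon conditioned medium after compound addition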
[20] = blockade of melanocortin 4 receptor signaling – cell-based, plate reader, cherry pick, counter-screen for LGR2 antagonist project, dose response (AID 743444); type: functional;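 note: transfected HEK 293 cells stimulated with alpha-MSH peptide; potency of inhibitors of the alpha-MSH evoked signal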
[21] = viability loss in HEK293 cells – cell-based, plate reader, cherry-picked samples, cytotoxicity control, dose response (AID 743446); type: functional
[22] = biological target: T4, Heat shock factor protein 1 (Mus musculus, UniProt P38532); assay: decrease of HSF1-responsive luciferase luminescence – cell-based, NIH3T3, dose retest, confirmation (AID 2382); type: functional;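 note: NIH3T3 fibroblasts with HSF1-driven luciferase reporter stressed by proteasome inhibitor MG132; luminescence from HSF1-driven luciferase expression after 8 hours of MG132 stress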
T4 sequence (P38532 whole entry): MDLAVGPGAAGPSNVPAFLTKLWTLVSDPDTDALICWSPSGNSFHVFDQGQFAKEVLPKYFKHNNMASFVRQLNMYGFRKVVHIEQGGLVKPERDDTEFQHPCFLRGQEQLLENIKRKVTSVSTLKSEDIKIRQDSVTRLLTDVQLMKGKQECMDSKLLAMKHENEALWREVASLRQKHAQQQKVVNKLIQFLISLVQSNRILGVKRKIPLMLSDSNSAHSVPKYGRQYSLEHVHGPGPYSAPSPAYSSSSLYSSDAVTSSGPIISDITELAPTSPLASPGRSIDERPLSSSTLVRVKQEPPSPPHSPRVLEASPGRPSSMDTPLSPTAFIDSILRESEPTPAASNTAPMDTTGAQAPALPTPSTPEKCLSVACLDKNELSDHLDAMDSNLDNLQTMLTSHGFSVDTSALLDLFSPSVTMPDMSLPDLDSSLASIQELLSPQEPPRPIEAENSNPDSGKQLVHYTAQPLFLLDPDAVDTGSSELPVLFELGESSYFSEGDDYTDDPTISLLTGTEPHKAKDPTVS

[23] = biological target: Dual specificity tyrosine-phosphorylation-regulated kinase 1A (Rattus norvegicus, UniProt Q63470); type: biochemical, Homo sapiens
[24] = biological target: T5, Oxysterols receptor LXR-beta (Homo sapiens, UniProt P55055); type: functional, cell-based;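 note: Cell-based luminescence dose-response assay of agonist activity at LXR, run as a confirmatory counterscreen to a daf-12 agonist screen; HEK293 cells with Gal4-LXR fusion and GAL4-driven luciferase reporter; agonist potency from rising luciferase signal of a Gal4-LXR reporter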
T5 sequence (P55055 whole entry): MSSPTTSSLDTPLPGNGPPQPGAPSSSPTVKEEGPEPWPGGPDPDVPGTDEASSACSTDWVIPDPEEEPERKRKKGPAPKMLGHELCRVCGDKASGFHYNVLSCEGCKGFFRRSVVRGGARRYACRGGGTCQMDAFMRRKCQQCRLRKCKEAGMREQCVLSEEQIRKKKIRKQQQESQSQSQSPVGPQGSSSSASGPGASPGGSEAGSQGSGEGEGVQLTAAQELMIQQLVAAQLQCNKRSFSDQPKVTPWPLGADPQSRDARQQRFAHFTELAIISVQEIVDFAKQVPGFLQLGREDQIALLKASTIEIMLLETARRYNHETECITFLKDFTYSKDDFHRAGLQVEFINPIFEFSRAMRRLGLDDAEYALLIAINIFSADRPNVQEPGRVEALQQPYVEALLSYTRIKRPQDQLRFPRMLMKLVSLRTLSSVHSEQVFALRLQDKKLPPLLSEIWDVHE

Mu-type opioid receptor, sequence (P35372 whole entry): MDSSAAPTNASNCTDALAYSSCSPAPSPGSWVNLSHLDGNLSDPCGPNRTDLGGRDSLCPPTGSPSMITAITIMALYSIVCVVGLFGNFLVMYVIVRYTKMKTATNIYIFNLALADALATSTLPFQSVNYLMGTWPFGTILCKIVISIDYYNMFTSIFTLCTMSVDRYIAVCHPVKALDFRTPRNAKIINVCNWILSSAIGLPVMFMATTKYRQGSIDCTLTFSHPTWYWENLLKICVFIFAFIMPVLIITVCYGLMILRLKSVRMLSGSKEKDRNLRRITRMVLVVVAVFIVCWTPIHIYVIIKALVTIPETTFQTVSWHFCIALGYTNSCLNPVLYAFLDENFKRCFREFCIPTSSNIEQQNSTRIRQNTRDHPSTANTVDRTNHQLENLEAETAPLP
5-hydroxytryptamine receptor 2A, sequence (P35363 whole entry): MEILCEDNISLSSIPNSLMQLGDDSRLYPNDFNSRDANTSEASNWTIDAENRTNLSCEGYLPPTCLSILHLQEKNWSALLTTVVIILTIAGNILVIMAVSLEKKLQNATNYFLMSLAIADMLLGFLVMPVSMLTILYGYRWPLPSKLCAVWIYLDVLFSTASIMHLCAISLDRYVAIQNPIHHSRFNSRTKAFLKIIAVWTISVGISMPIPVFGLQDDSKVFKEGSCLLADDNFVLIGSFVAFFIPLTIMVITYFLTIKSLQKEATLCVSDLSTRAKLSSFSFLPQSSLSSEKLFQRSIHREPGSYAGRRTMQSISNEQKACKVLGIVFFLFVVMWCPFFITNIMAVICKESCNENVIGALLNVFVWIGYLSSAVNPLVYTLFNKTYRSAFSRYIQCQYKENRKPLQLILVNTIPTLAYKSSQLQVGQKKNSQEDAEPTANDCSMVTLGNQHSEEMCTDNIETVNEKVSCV
ATP-dependent molecular chaperone HSP82, sequence (C4YTQ8 whole entry): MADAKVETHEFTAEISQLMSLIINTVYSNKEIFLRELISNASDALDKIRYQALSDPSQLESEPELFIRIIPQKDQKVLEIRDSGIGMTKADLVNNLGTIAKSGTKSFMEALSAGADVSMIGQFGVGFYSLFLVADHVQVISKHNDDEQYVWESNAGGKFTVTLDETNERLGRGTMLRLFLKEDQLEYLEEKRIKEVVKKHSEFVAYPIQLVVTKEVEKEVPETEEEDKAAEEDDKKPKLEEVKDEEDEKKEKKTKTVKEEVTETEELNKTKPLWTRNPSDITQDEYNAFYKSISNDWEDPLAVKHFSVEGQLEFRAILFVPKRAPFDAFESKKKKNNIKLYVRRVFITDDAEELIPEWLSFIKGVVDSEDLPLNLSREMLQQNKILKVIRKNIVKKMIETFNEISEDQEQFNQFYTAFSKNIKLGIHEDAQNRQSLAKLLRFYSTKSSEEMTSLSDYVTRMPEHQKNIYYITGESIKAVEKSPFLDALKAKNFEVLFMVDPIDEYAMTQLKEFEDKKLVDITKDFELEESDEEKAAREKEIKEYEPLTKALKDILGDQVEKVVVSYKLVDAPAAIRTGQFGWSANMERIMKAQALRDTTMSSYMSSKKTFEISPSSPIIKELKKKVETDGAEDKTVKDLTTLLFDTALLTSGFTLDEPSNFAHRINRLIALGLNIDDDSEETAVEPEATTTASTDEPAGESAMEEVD
Paired box protein Pax-8, sequence (Q06710 whole entry): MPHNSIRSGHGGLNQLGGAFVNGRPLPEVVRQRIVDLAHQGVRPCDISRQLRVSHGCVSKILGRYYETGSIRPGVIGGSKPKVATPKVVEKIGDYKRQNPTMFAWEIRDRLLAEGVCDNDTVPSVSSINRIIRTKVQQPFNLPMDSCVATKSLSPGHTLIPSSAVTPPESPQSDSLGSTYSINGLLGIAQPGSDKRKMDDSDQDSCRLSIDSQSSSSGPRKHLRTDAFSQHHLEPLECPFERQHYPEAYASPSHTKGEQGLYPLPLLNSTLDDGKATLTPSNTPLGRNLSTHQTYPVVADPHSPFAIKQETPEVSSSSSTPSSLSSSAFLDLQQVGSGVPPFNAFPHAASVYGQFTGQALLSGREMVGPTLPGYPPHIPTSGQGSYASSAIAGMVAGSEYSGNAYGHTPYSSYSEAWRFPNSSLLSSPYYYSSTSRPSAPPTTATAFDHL

## O=[N+]([O-])c1cccc(-c2cc(-c3cc(Br)ccc3O)n[nH]2)c1
[1]
  EC50: 19 µM (inconclusive)
[2]
  EC50: 0.954 µM (active)
[3]
  EC50: > 180 µM (inactive)
[4]
  AC50: 2.03 µM (active)
[5]
  EC50: 11.9 µM (active)

## CN1CCc2c(C#N)c(N3CCCCC3)nc(NCc3ccccc3)c2C1
[6]
  EC50: 16.8 µM (active)
[7]
  EC50: 0.639 µM (active)
[8]
  EC50: 2.44 µM (active)
[9]
  EC50: 17.8 µM (active)
[10]
  EC50: > 60 µM (not active)
[11]
  EC50: 13.5 µM (active)
Vero
  CC50: > 40 µM (active)

## CC(=O)c1cccc(OCC(O)CNCC2COc3ccccc3O2)c1 (stereo not drawn)
Mu-type opioid receptor
  EC50: 92.5 µM (inactive)
[12]
  EC50: 2.85 µM (active)

## Cc1ccc(S(=O)(=O)N2CCOCC2)cc1NC(=O)CNCc1cccnc1
Mu-type opioid receptor
  EC50: 92.5 µM (inactive)
[12]
  EC50: 6.05 µM (active)
[13]
  IC50: 108 µM (active)

## CCN(CC)CCCNc1cc(C(F)(F)F)c(C#N)c2nc3ccccc3n12
[14]
  AC50: > 20 µM (inactive)

## Cc1cccc(NC(S)=NNC(=O)c2ccc3c(c2)OCO3)c1
[15]
  IC50: > 122 µM (inactive)

## Oc1ccc(C2=CCNCC2)cc1O
Mu-type opioid receptor
  EC50: 92.4 µM (inactive)
[12]
  EC50: 0.0242 µM (active)

## CCN1/C(=C/C(C)=C/c2sc3ccccc3[n+]2CC)Sc2ccccc21
[14]
  AC50: 7.11 µM (active)

## C[C@H]1CN([C@@H](C)CO)S(=O)(=O)c2ccc(-c3ccc(C#N)cc3)cc2O[C@@H]1CN(C)Cc1cccc(F)c1
Paired box protein Pax-8
  AC50: 8.67 µM (active)
[16]
  AC50: > 60 µM (inactive)

## N#C[C@@H]1[C@H](c2ccc(C#Cc3ccc(F)cc3)cc2)[C@@H](CO)N1C(=O)C1CCCC1
[17]
  AC50: 19.1 µM (active)
[18]
  AC50: 18.5 µM (active)
[19]
  AC50: 15.8 µM (active)
[20]
  AC50: 13.1 µM (active)
[21]
  AC50: 50.9 µM (active)

## C(=N\NC1=Nc2cccc3cccc1c23)/c1ccccn1
[1]
  EC50: 2.55 µM (inconclusive)
[22]
  EC50: 3.2 µM (active)
[2]
  EC50: 1.05 µM (active)
[7]
  EC50: 0.619 µM (active)
[10]
  EC50: > 60 µM (not active)
[23]
  AC50: 9.7 µM (active)
[24]
  EC50: > 67.5 µM (inactive)
cells
  EC50: > 67.5 µM (inactive)

## C/C(=N\NC(=S)Nc1ccc(C)cc1)c1cc2ccccc2o1.CN(C)C=O
[15]
  IC50: 31.8 µM (inactive)

Source: ChEMBL document CHEMBL1201862, “PubChem BioAssay data set” (2004)
